Values joined by “and” are separate entries in the source; they are usually repeats but may differ in a detail not shown here. Identical values can stand only once.
What was measured:
[1] = UNIVERSE adverse events, serious adverse events and treatment discontinuation; format: in vivo, pediatric patients
Description: Other safety outcomes: Any adverse events and serious adverse events (SAES).

[2] = Benefit-risk assessment: excess number of events per 1,000 subjects, Part B rivaroxaban vs aspirin
Description: Benefit-risk balance was assessed using excess number of events defined as the absolute proportion difference between the Part B rivaroxaban and aspirin groups scaled to 1,000 subjects to reflect benefits and risks on a population level.

[3] = clinical; conditions: human, plasma, oral
Description: Rivaroxaban was administered twice daily (BID) in an open-label fashion as a 0.1% (1 mg/mL) oral suspension based on weight as shown in Table 2 (not related to prandial state).
Blood samples were collected for PK (i.e., plasma rivaroxaban concentrations) and full PD (prothrombin time [PT], activated partial thromboplastin time [aPTT], and anti-factor Xa activity) assessments on the first day of dosing between 0.5 to 1.5 hours and again between 1.5 to 4.0 hours postdose. Additional samples were collected on Day 4, just prior to rivaroxaban administration (PK, PT, aPTT) and again between 0.5 to 1.5 hours (PK, PT, aPTT), 1.5 to 4.0 hours (PK, PT, aPTT), and 6.0 to 8.0 hours (PK and full PD) postdose. At Month 3, samples were collected just prior to rivaroxaban dosing (PK and full PD) and at 0.5 to 1.5 hours postdose (PK, PT, aPTT) and 2.5 to 4 hours postdose (PK, PT, aPTT). An additional random sample (PK, PT, and aPTT) was collected at Month 12.
In Part B, blood samples were collected for assessment of PT and aPTT before the first dosing; PK and full PD samples were collected between 0.5 to 1.5 hours and again between 1.5 to 4.0 hours after the first dose. At Month 3, PK and full PD samples were collected just prior to rivaroxaban administration and again between 0.5 to 1.5 hours, and 2.5 to 4.0 hours postdose. An additional random sample (PK, PT, and aPTT) was collected at Month 12.
Blood samples for PK or PD assays were centrifuged, and the resulting plasma samples were frozen and stored below −15° C. until analyzed. Rivaroxaban plasma concentrations were determined using the validated liquid chromatography/mass spectrometry/mass spectrometry (LC-MS/MS) method with a lower limit of quantitation (LLOQ) of 0.5 μg/L. The pharmacodynamic effects of rivaroxaban were assessed by evaluation of prothrombin time (PT), activated partial thromboplastin time (aPTT), and anti-Factor Xa activity (AXA).
Patients in Part A received their first dose of rivaroxaban oral suspension on Day 1 (on site) and then continued taking rivaroxaban twice daily for 12 days (+9 days) to achieve steady state. PK and PD samples were collected on Day 1 and Day 4 (+2 days) of rivaroxaban administration (Table 3).
Part A, individual empirical Bayesian post-hoc PK parameters were derived using the existing population PK model from the Einstein Jr program (with the NONMEM option: $ESTIMATION MAXEVAL=0).
The population PK model used for the rivaroxaban PK profile evaluation was based on the Einstein Jr program. The pharmacokinetics of rivaroxaban were described by a linear two-compartment model with first-order oral absorption and first-order elimination from the central compartment with the absorption rate constant (KA), apparent clearance of the central compartment (CL/F), apparent central volume of distribution (Vc/F), apparent peripheral volume of distribution (Vp/F), and transport rate between the central and peripheral compartments (CI) as structural model parameters. CL/F, Q/F, Vp/F, and Vc/F were fig. allometrically scaled with body weight. Inter-individual variability (IIV) was identified for KA and CL/F. Residual error was described by a proportional error model.

[4] = Part A N=12, treatment-emergent, safety set
[5] = Part B rivaroxaban N=64, aspirin N=34, safety set
[6] = Part B rivaroxaban N=64, aspirin N=34, treatment-emergent, safety set
[7] = Part B rivaroxaban N=64, aspirin N=34, up to end of treatment, full analysis set
[8] = Part B rivaroxaban minus aspirin, up to end of treatment, full analysis set
[9] = Part B rivaroxaban vs aspirin, negative values favor rivaroxaban
[10] = Part B rivaroxaban vs aspirin, positive values favor aspirin
[11] = for 1,000 subjects treated with rivaroxaban

With O=C(NC[C@H]1CN(c2ccc(N3CCOCC3=O)cc2)C(=O)O1)c1ccc(Cl)s1 [Rivaroxaban, 5-chloro-N-({(5S)-2-oxo-3-[4-(3-oxo-4-morpholinyl)phenyl]-1,3,oxazolidin-5-yl}methyl)-2-thiophenecarboxamide] the “AEs related to Study Agent, n (%)” value ([1]; Part A N=12, safety set) was 3 (25.0%), the “SAEs related to Study Agent, n (%)” value ([1]; Part A N=12, safety set) was 0 and the “TEAEs resulting in Permanent Discontinuation of Study Agent, n (%)” value ([1]; Part A N=12, safety set) was 0. The “Adverse event: Pleural Effusion, % of participants” value [1, 4] was “(25%)”, the “Adverse event: Pleural Effusion, n (%)” value [1, 4] was 3 and the “All TESAEs (subjects with 1 or more serious adverse events), % of subjects” value [1, 4] was “(50%)”. The “Serious adverse event: Infections, % of participants” value [1, 4] was “(25%)”, the “Serious adverse event: Infections, n (%)” value [1, 4] was 3 and the “Serious adverse event: Pleural Effusion, % of participants” value [1, 4] was “(17%)”. For the same compound, the “Serious adverse event: Pleural Effusion, n (%)” value [1, 4] was 2, the “Serious adverse event: Respiratory, Thoracic, and Mediastinal Disorders, % of participants” value [1, 4] was “(17%)” and the “Serious adverse event: Respiratory, Thoracic, and Mediastinal Disorders, n (%)” value [1, 4] was 2. For the same compound, the “TEAE: Gastrointestinal Disorders, n (%)” value [1, 4] was 6, the “TEAE: General Disorders and Administration Site Conditions, n (%)” value [1, 4] was 1 and the “TEAE: Injury, Poisoning, and Procedural Complications, n (%)” value [1, 4] was 4. For the same compound, the “TEAE: Respiratory, Thoracic, and Mediastinal Disorders, n (%)” value [1, 4] was 5, the “TEAE: Skin and Subcutaneous Tissue Disorders, n (%)” value [1, 4] was 3 and the “TEAE: Vascular Disorders, n (%)” value [1, 4] was 2. The “Study treatment discontinued due to adverse event of mood disturbance, subjects n (%)” value ([1]; Part B rivaroxaban N=64) was 1 (1.6%), the “AEs related to Study Agent, n (%)” value [1, 5] was 20 (31.3%) and the “SAEs related to Study Agent, n (%)” value [1, 5] was 1 (1.6%). The “TEAEs resulting in Permanent Discontinuation of Study Agent, n (%)” value [1, 5] was 2 (3.1%), the “All TEAEs (subjects with 1 or more), n (%)” value [1, 6] was 55 (85.9%) and 55 (86%) and the “All TESAEs (subjects with 1 or more serious adverse events), n (%)” value [1, 6] was 18 (28.1%) and 18 (28%). The “Serious adverse event: Infections, n (%)” value [1, 6] was 5 (8%), the “Serious adverse event: Pleural Effusion, n (%)” value [1, 6] was 9 (14%) and the “Serious adverse event: Respiratory, Thoracic, and Mediastinal Disorders, n (%)” value [1, 6] was 9 (14%). For the same compound, the “TEAE: Gastrointestinal Disorders, n (%)” value [1, 6] was 19 (29.7%) and 19 (30%), the “TEAE: General Disorders and Administration Site Conditions, n (%)” value [1, 6] was 17 (26.6%) and 17 (27%) and the “TEAE: Injury, Poisoning, and Procedural Complications, n (%)” value [1, 6] was 18 (28.1%) and 18 (28%). The “TEAE: Respiratory, Thoracic, and Mediastinal Disorders, n (%)” value [1, 6] was 29 (45.3%) and 29 (45%), the “TEAE: Skin and Subcutaneous Tissue Disorders, n (%)” value [1, 6] was 19 (29.7%) and 19 (30%) and the “TEAE: Vascular Disorders, n (%)” value [1, 6] was 3 (4.7%) and 3 (5%). The “SAEs, % of subjects” value [1, 7] was “(28.1%)”, the “SAEs, No. of subjects with event” value [1, 7] was 18/64 and the New safety signals ([1]; UNIVERSE study) was “no new safety signals”. For the same compound, the “Excess number of events: CRNM bleeding” value [2, 8] was −25.7 events per 1,000 subjects, the “Excess number of events: SAEs” value [2, 8] was 46.0 events per 1,000 subjects and the “Excess number of events: all-cause mortality” value [2, 8] was 0.0 events per 1,000 subjects. The “Excess number of events: any thrombotic event (primary efficacy outcome)” value [2, 8] was −72.6 events per 1,000 subjects, the “Excess number of events: arterial/intracardiac thrombosis” value [2, 8] was 0.0 events per 1,000 subjects and the “Excess number of events: fall in hemoglobin ≥2 g/dL or transfusion of the equivalent ≥2 units” value [2, 8] was 15.6 events per 1,000 subjects. For the same compound, the “Excess number of events: fatal or critical site bleeding” value [2, 8] was 0.0 events per 1,000 subjects, the “Excess number of events: ischemic stroke” value [2, 8] was −29.4 events per 1,000 subjects and the “Excess number of events: major and clinically relevant non-major bleeding” value [2, 8] was −10.1 events per 1,000 subjects. For the same compound, the “Excess number of events: major bleeding (primary safety outcome)” value [2, 8] was 15.6 events per 1,000 subjects, the “Excess number of events: pulmonary embolism” value [2, 8] was 15.6 events per 1,000 subjects and the “Excess number of events: trivial (minimal) bleeding” value [2, 8] was −24.8 events per 1,000 subjects. For the same compound, the “Excess number of events: venous thromboembolism” value [2, 8] was −43.2 events per 1,000 subjects, the “Excess number of events: venous thrombosis” value [2, 8] was −58.8 events per 1,000 subjects and the “NNH: CRNM bleeding” value [2, 9] was −39. For the same compound, the “NNH: major and clinically relevant non-major bleeding” value [2, 9] was −99, the “NNH: trivial (minimal) bleeding” value [2, 9] was −41 and the “NNT: any thrombotic event (primary efficacy outcome)” value [2, 9] was −14. For the same compound, the “NNT: ischemic stroke” value [2, 9] was −34, the “NNT: venous thromboembolism” value [2, 9] was −24 and the “NNT: venous thrombosis” value [2, 9] was −17. The “NNH: SAEs” value [2, 10] was 21, the “NNH: fall in hemoglobin ≥2 g/dL or transfusion of the equivalent ≥2 units” value [2, 10] was 64 and the “NNH: major bleeding (primary safety outcome)” value [2, 10] was 64. For the same compound, the “NNT: pulmonary embolism” value [2, 10] was 64, the “Less events of clinically relevant non-major bleeding expected than with aspirin” value [2, 11] was 25 events and the “More events of ISTH major bleeding expected than with aspirin” value [2, 11] was 16 events. For the same compound, the “Thrombotic events (primary efficacy outcome) expected to be prevented compared with aspirin” value [2, 11] was 73 events, the AUC(0-t) [3] was 1480 ng·h/mL and the Cmax [3] was 124 ng/mL.

— patent US20220193085A1, “METHODS OF THROMBOPROPHYLAXIS” (JANSSEN PHARMACEUTICALS, INC., priority 2020, published 2022)
